Measured values taken from patent US8552208B2, “Analogs of tetramic acid” (University of Tennesseee Research Foundation, priority 2007, dated 2013).
Converted amounts (≈) assume the structure as drawn. “And” between values parts separate entries of the source, which are not always exact repeats. Identical values can stand only once. Like-named read-outs stand apart in the source and are kept apart here.

Columns and labels:
[1] = test system: MSSA (ATCC 25293) biofilm; assay: Calgary Biofilm Device anti-biofilm activity; format: cell-based; conditions: Staphylococcus aureus; for MBC: read-out: MBEC = Minimum Biofilm Eradication Concentration; for MIC: read-out: MBIC = Minimum Biofilm Inhibitory Concentration
[2] = test system: Streptococcus pneumoniae DAW30EC; assay: Antibacterial activity assay (MIC, broth dilution); format: cell-based; conditions: read-out: MIC, SPn
[3] = test system: Mycobacterium tuberculosis H37 Rv; assay: Antibacterial activity assay (MIC, broth dilution); format: cell-based; conditions: H37RV, 168 h, read-out: MIC, TB
[4] = test system: Bacillus subtilis ATCC 23857; assay: Antibacterial activity assay (MIC, broth dilution); format: cell-based
[5] = test system: Streptococcus pyogenes ATCC 700294; assay: Antibacterial activity assay (MIC, broth dilution); format: cell-based
[6] = test system: Methicillin Resistant Staphylococcus aureus ATCC 33591; assay: Antibacterial activity assay (MIC, broth dilution); format: cell-based; conditions: ATCC 33591 / MRSA, read-out: MIC, MRSA
[7] = test system: Methicillin sensitive Staphylococcus aureus 8325 ATCC 35556; assay: Antibacterial activity assay (MIC, broth dilution); format: cell-based; conditions: ATCC 35556 / MSSA, read-out: MIC, MSSA
[8] = test system: clinical isolates of MSSA (methicillin sensitive S. aureus); format: cell-based
[9] = test system: S. epidermidis (RP62A) biofilm; assay: Calgary Biofilm Device anti-biofilm activity; format: cell-based; conditions: Staphylococcus epidermidis, S. epidermidis biofilm, triplicate runs listed singly; for MBC: read-out: MBEC = Minimum Biofilm Eradication Concentration; for MIC: read-out: MBIC = Minimum Biofilm Inhibitory Concentration
[10] = test system: Enterococcus faecalis ATCC 33186; assay: Antibacterial activity assay (MIC, broth dilution); format: cell-based
[11] = test system: Propionibacterium acnes ATCC 6919; assay: Antibacterial activity assay (MIC, broth dilution); format: cell-based; conditions: Cutibacterium acnes
Cytotoxicity assay (MTT) = format: cell-based, monkey; conditions: monkey, Vero monkey kidney cells (ATCC CCL-81); Vero cells, 72 hours, MTT; read-out: IC50 (Cytotoxicity): Concentration which reduces viability of Vero kidney cells by 50%
How it was run: (§1)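 Vero cells seeded ~10^6 cells/mL and pre-incubated 18 h, then exposed to compounds at 400-0.024 μg/mL for 72 h at 37 °C, 5% CO2; 0.1% Triton X-100 as full-kill control. MTT added 3 h, formazan read at 570 nm after lysis; IC50 from percent activity vs log10 concentration curves.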

[12] = test system: Vero monkey kidney cell line (ATCC, CCL-81); assay: Cytotoxicity assay (MTT); format: cell-based; conditions: IC50 divided by MIC against S. aureus 8325
How it was run: as §1

[13] = test system: methicillin-sensitive S. aureus ATCC 29213; assay: Superficial skin infection model in mice; format: in vivo, Balb/c mice; conditions: topical, twice daily for three days, bacteria in lesions on day 5, placebo 8.15 +/− 0.37
Description: Compounds of the invention were tested for the ability to treat skin infections utilizing an established animal model of skin infection. The superficial skin infection model used in this study was previously developed by Kugelberg et al, “Establishment of a Superficial Skin Infection Model in Mice using Staphylococcus aureus and Streptococcus pyogenes”, Antimicrob. Agents Chemother., 49(8):3435-3441 (2005).
Superficial infections in Balb/c mice (male) were caused by first removing hair from the backs of mice with an electric shaver, followed by dry shaving with a razor and tape stripping with Tensoplast® (BSN Medical Inc., Charlotte, N.C.) adhesive bandage to remove the epidermis, followed by infection with a 5 μl bacterial suspension containing about 10^7 bacterial cells of methicillin-sensitive S. aureus ATCC 29213, a strain from a previous isolate from a human wound infection and used in other murine infection studies. After 4 hours of infection, treatment was started by administering 45-50 mg of ointment containing (i) vehicle hydrophilic petrolatum (placebo) (ii) 2% w/w mupirocin ointment (Bactroban®, GlaxoSmithKline plc., United Kingdom) in vehicle or (iii) 2% tetramic acid analogue of the invention (13b) in vehicle, (iv) 10% tetramic acid analogue of the invention (13b) in vehicle, (v) 2% tetramic acid analogue of the invention (13l) in vehicle, or (vi) 10% tetramic acid analogue of the invention (13l) in vehicle. Treatment was continued for three days with drug application twice daily at 8 hour intervals. On day 5, mice were sacrificed and the numbers of bacteria in lesions were enumerated.
This conclusion stems from statistical analysis of the resulting means by one way ANOVA followed by Tukey's test at P<0.01 with Placebo as the control group. Therefore, the tetramic acid analogues of the invention have the potential to be used clinically for the treatment of skin infections, such as those caused by Staphylococcus aureus.

[14] = test system: clinical isolates of MRSA (methicillin resistant S. aureus); format: cell-based
[15] = test system: Bacillus anthracis Sterne 34F2; assay: microbe, parasite or virus in culture; format: cell-based; conditions: STERNE34F2, read-out: MIC, BA
[16] = test system: MRSA (ATCC 35391) biofilm; assay: Calgary Biofilm Device anti-biofilm activity; format: cell-based, Staphylococcus aureus; conditions: Staphylococcus aureus, triplicate runs listed singly; for MIC: read-out: MBIC = Minimum Biofilm Inhibitory Concentration
Staphylococcus aureus = assay: Selection of single-step resistant mutants; format: cell-based; conditions: from a population of 10^10 cells
[17] = MSSA biofilm, triplicate runs listed singly

C/C(O)=C1\C(=O)[C@H](CC(C)C)N(CC2=CCC3CC2C3(C)C)C1=O (stereo partly drawn) [Compound 13l, (5S,Z)-1-((6,6-dimethylbicyclo[3.1.1]hept-2-en-2-yl)methyl)-3-(1-hydroxyethylidene)-5-isobutylpyrrolidine-2,4-dione]
MBC [1, 17]: > 400 mg/L
MIC [1]: 3.12 mg/L (≈ 9.41 µM)
MIC ([2]; Streptococcus pneumoniae, DAW30EC): 50 mg/L (≈ 151 µM)
MIC ([3]; Mycobacterium tuberculosis): 100 mg/L (≈ 302 µM)
MIC ([4]; Bacillus subtilis, ATCC23857, read-out: MIC, BS): 1.6 mg/L (≈ 4.83 µM)
MIC ([5]; Streptococcus pyogenes, ATCC700294, read-out: MIC, SP): 25 mg/L (≈ 75.4 µM)
MIC [6]: 1.6 mg/L (≈ 4.83 µM)
MIC ([7]; Staphylococcus aureus): 1.6 mg/L (≈ 4.83 µM)
Antibiotic MIC [8]: 3.2 mg/L and 1.6 mg/L
MBC [9]: > 400 mg/L
MIC [9]: 1.6 mg/L (≈ 4.83 µM)
MIC ([10]; Enterococcus faecalis, ATCC33186, read-out: MIC, EF): 1.6 mg/L (≈ 4.83 µM)
MIC ([11]; ATCC6919, read-out: MIC, PA): 0.8 mg/L (≈ 2.41 µM)
IC50 at 72 h (Cytotoxicity assay (MTT)): 35.4 mg/L
IC50/MIC = Selectivity (therapeutic) index [12]: 22.1
Mean Bacterial Count (log10) +/− SD ([13]; 2% ointment): 7.67 +/− 0.21 log10
Mean Bacterial Count (log10) +/− SD ([13]; 10% ointment): 6.51 +/− 0.67 log10
Antibiotic MIC ([14]; isolate MRSA-1): 3.12 mg/L
Antibiotic MIC ([14]; isolate MRSA-2): 3.12 mg/L
Antibiotic MIC ([14]; isolate MRSA-3): 3.12 mg/L
Antibiotic MIC ([14]; isolate MRSA-4): 3.12 mg/L
Antibiotic MIC ([14]; isolate MRSA-5): 3.12 mg/L
Antibiotic MIC ([14]; isolate MRSA-6): 3.12 mg/L
Antibiotic MIC ([14]; isolate MRSA-7): 3.12 mg/L
Antibiotic MIC ([14]; isolate MRSA-8): 0.4 mg/L
Antibiotic MIC ([14]; isolate MRSA-9): 3.12 mg/L
Antibiotic MIC ([14]; isolate MRSA-10): 3.12 mg/L
MIC [15]: 0.8 mg/L (≈ 2.41 µM)
MBC ([16]; MRSA biofilm, read-out: MBEC = Minimum Biofilm Eradication Concentration): > 400 mg/L
MIC ([16]; MRSA biofilm): 1.6 mg/L (≈ 4.83 µM)

CCCCCCCCCCN1C(=O)/C(=C(/C)O)C(=O)[C@@H]1CC(C)C [Compound 13b, (S,Z)-1-decyl-3-(1-hydroxyethylidene)-5-isobutylpyrrolidine-2,4-dione]
MBC [1, 17]: 100 mg/L (≈ 296 µM)
MIC [1, 17]: 0.8 mg/L (≈ 2.37 µM)
MIC ([2]; Streptococcus pneumoniae DAW30EC): 6.25 mg/L (≈ 18.5 µM)
MIC ([3]; Mycobacterium tuberculosis H37 Rv, […]): 12.5 mg/L (≈ 37 µM)
single-step mutants resistant to the compound (Staphylococcus aureus): could not be obtained
MIC ([4]; ATCC23857, Bacillus subtilis ATCC 23857, read-out: MIC, BS): 0.8 mg/L (≈ 2.37 µM)
MIC ([5]; ATCC700294, Streptococcus pyogenes ATCC 700294, read-out: MIC, SP): 50 mg/L (≈ 148 µM)
MIC [6]: 0.8 mg/L (≈ 2.37 µM)
MIC ([7]; Methicillin sensitive Staphylococcus aureus 8325 ATCC 35556): 0.4 mg/L (≈ 1.19 µM)
Antibiotic MIC ([8]; isolate MSSA-11): 0.8 mg/L
Antibiotic MIC ([8]; isolate MSSA-12): 0.4 mg/L
Antibiotic MIC ([8]; isolate MSSA-13): 0.4 mg/L
Antibiotic MIC ([8]; isolate MSSA-14): 0.4 mg/L
Antibiotic MIC ([8]; isolate MSSA-15): 0.4 mg/L
Antibiotic MIC ([8]; isolate MSSA-16): 0.4 mg/L
Antibiotic MIC ([8]; isolate MSSA-17): 0.4 mg/L
Antibiotic MIC ([8]; isolate MSSA-18): 0.4 mg/L
Antibiotic MIC ([8]; isolate MSSA-19): 0.4 mg/L
Antibiotic MIC ([8]; isolate MSSA-20): 0.8 mg/L
MBC [9]: 50 mg/L (≈ 148 µM)
MIC [9]: 0.4 mg/L (≈ 1.19 µM)
MIC ([10]; ATCC33186, Enterococcus faecalis ATCC 33186, read-out: MIC, EF): 1.6 mg/L (≈ 4.74 µM)
MIC ([11]; ATCC6919, Propionibacterium acnes ATCC 6919, read-out: MIC, PA): 0.8 mg/L (≈ 2.37 µM)
IC50 at 72 h (Cytotoxicity assay (MTT)): 14.7 mg/L
IC50/MIC = Selectivity (therapeutic) index [12]: 36.8
Mean Bacterial Count (log10) +/− SD ([13]; 2% ointment): 8.08 +/− 0.28 log10
Mean Bacterial Count (log10) +/− SD ([13]; 10% ointment): 6.47 +/− 0.58 log10
Antibiotic MIC ([14]; isolate MRSA-1): 0.8 mg/L
Antibiotic MIC ([14]; isolate MRSA-2): 0.8 mg/L
Antibiotic MIC ([14]; isolate MRSA-3): 0.8 mg/L
Antibiotic MIC ([14]; isolate MRSA-4): 0.8 mg/L
Antibiotic MIC ([14]; isolate MRSA-5): 0.8 mg/L
Antibiotic MIC ([14]; isolate MRSA-6): 1.6 mg/L
Antibiotic MIC ([14]; isolate MRSA-7): 0.8 mg/L
Antibiotic MIC ([14]; isolate MRSA-8): 0.4 mg/L
Antibiotic MIC ([14]; isolate MRSA-9): 0.8 mg/L
Antibiotic MIC ([14]; isolate MRSA-10): 0.8 mg/L
MIC [15]: 0.8 mg/L (≈ 2.37 µM)
MIC ([16]; MRSA biofilm): 0.8 mg/L (≈ 2.37 µM)
MBC ([16]; read-out: MBEC = Minimum Biofilm Eradication Concentration, MRSA biofilm): 6.25 mg/L (≈ 18.5 µM)
